Laboratory results from US6989371B1, “Bombesin analogs for treatment of cancer” (Dabur Research Foundation, priority 1996, dated 2006).

Key:
Assay in all cases: MTT cytotoxicity assay, 72 hours (Example 13)
Assay type in all cases: cell-based, human
[1] = system: PA-1 (ovary)
Description: (§1) The cytotoxic activity of other synthesized bombesin analogs was tested on eight human tumor cell lines namely HT-29, SW620, PTC (all colon), PA-1 (ovary), A549 (lung), HBL100(breast), MOLT-4 (leukemia) and DU145 (prostate). The tumor cells were collected at exponential growth phase and resuspended in medium (1.5×10^6) cells/ml in RPMI 1640 containing 10% FBS). 150 μl of medium was added to the wells of a 96-well tissue culture plate (Nunc, Denmark) followed by 30 μl of cell suspension. The plate was left in incubator (37° C., 5% CO2 overnight. 20 μl of the peptide (10^−7×10^×10M concentration) was added to marked wells of the 96-well plate. Each concentration was plated in cells served as blanks. A total volume of 200 μl was ensured in each well and plate was left in incubator (37° C., 5% CO2). After 72 hours of incubation an MTT assay was performed and percentage cytotoxicity was calculated with respect to control cells. Following tables show the cytotoxicity achieved on various cell lines at different concentrations.

[2] = system: MOLT-4 (leukemia)
Description: as §1

[3] = system: PTC (colon)
Description: as §1

[4] = system: SW620 (colon)
Description: as §1

[5] = system: HT-29 (colon)
Description: as §1

[6] = system: HBL100 (breast); conditions: HBL
Description: as §1

[7] = system: DU145 (prostate)
Description: as §1

[8] = system: A549 (lung)
Description: as §1

`CCCC(CCC)(NC(=O)[C@@H](NC(=O)[C@H](C)NC(=O)[C@@H](Cc1c[nH]c2ccccc12)NC(=O)[C@H](CCC(N)=O)NC(=O)[C@H](N)Cc1ccccc1)C(C)C)C(=O)N[C@@H](Cc1c[nH]cn1)C(=O)N[C@@H](CC(C)C)C(N)=O` [SEQ ID: 8, D-Phe-Gln-D-Trp-Ala-Val-Dpg-His-Leu-NH2] was tested, and the “Percent Cytotoxicity” value ([1]; PA-1, 1 nM) was 23.8 ± 4.2%, the “Percent Cytotoxicity” value ([1]; PA-1, 10 nM) was 20.4 ± 3.0% and the “Percent Cytotoxicity” value ([1]; PA-1, 100 nM) was 10.4 ± 3.7%. The “Percent Cytotoxicity” value ([1]; PA-1, 100 PM) was 23.3 ± 5.5%, the “Percent Cytotoxicity” value ([2]; MOLT4, 1 nM) was 9.3 ± 0.2% and the “Percent Cytotoxicity” value ([2]; MOLT4, 10 nM) was 12.8 ± 3.3%. The “Percent Cytotoxicity” value ([2]; MOLT4, 100 nM) was 2.6 ± 0.1%, the “Percent Cytotoxicity” value ([2]; MOLT4, 100 PM) was 16.6 ± 3.1% and the “Percent Cytotoxicity” value ([3]; 1 nM) was 12.5 ± 1.7%. For the same compound, the “Percent Cytotoxicity” value ([3]; 10 nM) was 5.4 ± 1.7%, the “Percent Cytotoxicity” value ([3]; 100 nM) was 8.7 ± 2.1% and the “Percent Cytotoxicity” value ([3]; 100 PM) was 12.3 ± 1.9%. The “Percent Cytotoxicity” value ([4]; SW620, 1 nM) was 20.6 ± 3.9%, the “Percent Cytotoxicity” value ([4]; SW620, 10 nM) was 33.0 ± 3.8% and the “Percent Cytotoxicity” value ([4]; SW620, 100 nM) was 29.4 ± 2.9%. The “Percent Cytotoxicity” value ([4]; SW620, 100 PM) was 20.6 ± 3.9%, the “Percent Cytotoxicity” value ([5]; HT29, 1 nM) was 34.7 ± 3.3% and the “Percent Cytotoxicity” value ([5]; HT29, 10 nM) was 18.9 ± 4.2%. For the same compound, the “Percent Cytotoxicity” value ([5]; HT29, 100 nM) was 34.8 ± 4.2%, the “Percent Cytotoxicity” value ([5]; HT29, 100 PM) was 21.4 ± 3.1% and the “Percent Cytotoxicity” value ([6]; 1 nM) was 12.2 ± 1.9%. The “Percent Cytotoxicity” value ([6]; 10 nM) was 14.4 ± 2.1%, the “Percent Cytotoxicity” value ([6]; 100 nM) was 11.9 ± 2.1% and the “Percent Cytotoxicity” value ([6]; 100 PM) was 12.1 ± 1.9%. For the same compound, the “Percent Cytotoxicity” value ([7]; DU145, 1 nM) was 21.4 ± 6.2%, the “Percent Cytotoxicity” value ([7]; DU145, 10 nM) was 22.5 ± 2.2% and the “Percent Cytotoxicity” value ([7]; DU145, 100 nM) was 19.1 ± 2.1%. The “Percent Cytotoxicity” value ([7]; DU145, 100 PM) was 28.1 ± 3.5%, the “Percent Cytotoxicity” value ([8]; A549, 1 nM) was 19.7 ± 3.1% and the “Percent Cytotoxicity” value ([8]; A549, 10 nM) was 20.7 ± 2.2%. For the same compound, the “Percent Cytotoxicity” value ([8]; A549, 100 nM) was 21.7 ± 3.3% and the “Percent Cytotoxicity” value ([8]; A549, 100 PM) was 17.0 ± 2.7%.
